The test system of test [1] is VLA-4 (Jurkat cells, VCAM-1). Put plainly: VLA-4-dependent adhesion of Jurkat cells to VCAM-1. The test is classed as cell-based. The settings on record: Homo sapiens, 1 h, 37° C. The protocol: Microtiter plates were coated with ligands of the integrin VLA-4, i.e., recombinant human VCAM-1 (500 nanograms per well) or the fragment of connective segment of human fibronectin (CS-1), covalently attached to ovalbumin (5 micrograms per well) by overnight incubation (4° C.) with solutions of the proteins in phosphate-buffered saline (PBS). The plates were blocked with 1% bovine serum albumin (BSA) in Hanks' buffered salt solution (HBSS-BSA). The cells (Jurkat or human melanoma MV3) were labeled with the fluorescent dye 5-chloromethylfluorescein diacetate (CMFDA) and introduced into the wells of the plates (10^5 cells per well) together with varying amounts of Ajoene. After incubation at 37° C. for 1 h, the unbound cells were removed by aspiration and the wells washed four times with HBSS-BSA. Thereafter, the bound cells were lysed with 0.5% Triton X-100, and the fluorescence was measured using a Cytofluor 2300 plate reader. The number of adherent cells was calculated from a standard dilution curve of Triton X-100 lysates of the CMFDA-labeled cells.

In test [2] the test system is 111In-labeled neutrophils. Description: Neutrophil recruitment to inflamed joints in rat adjuvant arthritis. Format: in vivo. Conditions: 50 mg/kg i.v.; for Accumulation of 111In-labeled Neutrophils (mean ± SEM): 2 h. As to the method:
Rat adjuvant arthritis is characterized by integrin-mediated migration of ^51 Cr-labeled monocytes and ^111 In-labeled neutrophils into the inflamed synovium, which attains maximum between days 14 and 21 after the immunization. This model of human rheumatoid arthritis was used to assess in vivo effects of Ajoene on integrins that are known to be modulated by Ajoene in vitro.
Adjuvant arthritis was induced in 6-8 week old inbred male Lewis rats by immunization on the lower back with 0.5 mg Mycobacterium butyricum (Difco Laboratories, Inc., Detroit, Mich.) in 0.05 ml mineral oil in two sites subcutaneously at the base of the tail. All the animals developed polyarticular arthritis between days 11 and 13 after immunization. For clinical scoring, 0-4 points were assigned per limb and tail, based on the severity of erythema, swelling, and limitation of movement (the maximal possible score was 20).
Rat blood monocytes and neutrophils for migration studies were obtained by the hydroxyethyl starch (HES) exchange transfusion technique. The total blood volume of a donor rat was exchanged using 50 ml 6% HES solution in saline (DuPont Chemical Co., Dorval, Canada). After recovery of 40-45 ml blood/HES perfusate, the red cells were allowed to sediment (1 g) and the leukocyte-rich plasma was harvested. The leukocytes were recovered by centrifugation, resuspended in calcium-magnesium-free Tyrode's solution supplemented with 10% platelet-poor plasma (TS-PPP), and centrifuged in a discontinuous 63%/74% gradient of isotonic Percoll (Pharmacia Fine Chemicals, Dorval, Canada). The top layer, containing mononuclear cells (MN), and the cells in the 63%/74% interface, containing neutrophils, were collected, washed, and resuspended in TS-PPP. To obtain purified monocytes, the osmolality of the MN suspension was increased by adding 9% NaCl, and the suspension was centrifuged in a 40%/55%/58% Percoll gradient; monocytes were harvested at 40%/55% and […] interfaces, washed, and resuspended in TS-PPP.
Thereafter, monocytes (10^7 cells/ml) were labeled with 75 microCurie/ml of Na2^51 CrO4 (Amersham, Oakville, Canada) at 37° C. for 30 min. Neutrophils (10^7 cells/ml) were labeled with 1 microCurie/ml of ^111 In oxine (Amersham) for 10 min. Both populations were washed to remove excess labeled material and checked for viability and purity. The viability of either cell population used in the experiments was in excess of 95% (as double-checked by Trypan blue exclusion and neutral red staining). The separation procedure described above ordinarily produced populations that contained no less than 90% monocytes and no less than 95% neutrophils. […]

For test [3], the system named is cell-free HIV. Description: Cell-free HIV infection of syncytiotrophoblasts. The test is classed as cell-based, HIV-1. Conditions: 200 micromoles per liter and lower concentrations tested. The protocol: In order to assess the ability of Ajoene to inhibit lymphocyte-mediated HIV infection of syncytiotrophoblasts, HIV-1LBi -infected MOLT-4 cells were added to adherent cultures of uninfected syncytiotrophoblasts in the presence and absence of Ajoene. Various additional control conditions were also established. First, some wells received filtered (0.45 micrometer) supernatant of cell-free HIV from infected cell cultures. Yet other negative controls included syncytiotrophoblasts cultured alone and syncytiotrophoblasts cultured with uninfected MOLT-4 cells. After 24 hours, the cocultures were washed to removed unbound lymphocytes, fixed, permeabilized, stained for viral core antigens (p24 and p55), and viewed under a fluorescence microscope.

The subject of test [4] is HSV-2 strain G. Description: Herpes simplex virus infection of WI-38 fibroblasts (ELISA for HSV antigens). Format: cell-based. Conditions: Human alphaherpesvirus 2, WI-38, 24 hours. The protocol:
The effect on herpes simplex virus (HSV) infection was assessed using human embryonic lung fibroblast line WI-38 and HSV-2 strain G (derived from a human with the genital infection). Semiconfluent fibroblast monolayers grown in 96-well culture plates (10^5 cells per well) were exposed to serial dilutions of Ajoene or vehicle control, followed immediately by addition of HSV-2 (5000 CCID50 per well). After 24 hours of culturing, the supernatants were examined by ELISA for the content of HSV antigens.

For `C=CCSSC=CC[S+]([O-])CC=C` (centres unmarked) [Ajoene, 4,5,9-trithiadodeca-1,6,11-triene-9-oxide], the IC50 in test [1] worked out at 250 µM; in test [4], 6 µM. In addition, in test [2], the “inhibition of neutrophil recruitment to the talar joints” value is listed as ~ 50%. In addition, the “Accumulation of 111In-labeled Neutrophils (mean ± SEM)” value in test [2] (talar joint, P < 0.001) was 15,052 cpm per sample; in test [2] (tarsal joint, P = 0.085), 7,353 cpm per sample; in test [2] (vertebral joints, P = 0.089) it was 3,658 cpm per sample. In test [3], the “inhibition of cell-free HIV infection of syncytiotrophoblasts” value is reported as “totally inhibited”. The IC100 in test [4] (read-out: concentration completely preventing HSV infection) is 17 µM.

The values above are taken from patent publication US6177475A, “Methods of using integrin modulators for treatment of inflammation” (priority 1997, dated 2001).
